Literature values, collected in patent US20240075184A1, “BIODEGRADABLE IMPLANTS WITH ANTICORROSIVE COATINGS” (University of Georgia Research Foundation, Inc., priority 2021, published 2024).
Read-outs that look alike come from different tables or passages of the source.

Key:
[1] = 0.4 M in corrosion solution, Mg alloy AZ31
[2] = 0.4 M in corrosion solution, high-purity Mg

## O=C1C=C(O)C(=O)c2ccccc21 [Lawsone, 2-hydroxy-1,4-napthoquinone]
[1]
  inhibition efficiency: 90%
[2]
  inhibition efficiency: 97%
